The test system of assay [1] is 40 human urothelial (bladder) cancer cell lines. Nature of the assay: Alamar Blue growth inhibition of 40 bladder cancer cell lines, single drugs, 72 hours. Format: cell-based. Conditions: for criterion dose (CR): minimum dose at which at least 25% of cell lines showed growth inhibition >50%; for number of resistant cell lines / number of sensitive cell lines: of 40 bladder cancer cell lines; for number of sensitive cell lines: log10(GI50) ≤ CR. How it is done: The human bladder cancer cell lines and the respective growth conditions used in this study have been previously described (6, 7). Cisplatin was purchased from Sigma (St. Louis, Mo.), dissolved in Dulbecco's phosphate-buffered saline, and aliquoted in 1 mg/ml stocks. Paclitaxel was purchased from Sigma (St. Louis, Mo.), dissolved in Dimethyl Sulphoxide (DMSO), and aliquoted in 1 mM stocks. Gemcitabine was purchased from the University of Virginia Medical Center Pharmacy, dissolved in PBS, and aliquoted in 0.1 M stocks. Cell lines were maintained in appropriate media, in a humidified atmosphere containing 5% CO2 in air, except CRL2169 (SW780) which requires no CO2 for its growth. Cell lines were subcultured in an aqueous solution of 0.05% trypsin (Difco, 1:250) and 0.016% EDTA. Each cell line was used within 10 passages from its archival passage number in order to minimize any long term cell culture effects. Gene expression analysis of bladder cell lines was carried out as previously described using the HG-U133A GeneChip® array (Affymetrix®, Santa Clara, Calif., USA) (6, 7). The image file was analyzed with RMA, to obtain the expression intensity values of the microarray data (8).
Cell lines were seeded in 96-well cell culture plates (Costar) at a density of 1000 cells/well. 24 hours later, cells were exposed to the drugs diluted in RPMI-1640 medium, containing 10% FBS, concentration that is required by more than 75% of cell lines for their normal growth, at a total volume of 200 μL. Each drug dose was plated in triplicate, and the experiment was repeated four to seven times. The doses for Cisplatin were 200, 400, 800, 1600, 3200, and 6400 ng/ml; for Paclitaxel 0.0001, 0.001, 0.002, 0.005, 0.01, and 0.1 μM; for Gemcitabine 0.001, 0.01, 0.1, 1, 10, 100 μM.
From the dose-response data, log 10(GI50) values (log base 10 of concentration required to inhibit cell growth by 50% in comparison with untreated control) were estimated for all the cell lines by deriving log(dose) concentration curves on cell count percents as described below. To estimate the GI50 values reliably, we computed Euclidean distances among all replicated experiments, and excluded outlying experiments if they were in the top 20% among all measured distances. This percent was determined heuristically based on the general observations in experimental quality control. […] Subsequently, the data were fitted to a sigmoidal function such as the following nonlinear regression model for estimating each cell line's dose response curve:
Percent=1−1/(1+exp(−(log 10(dose)−β)/α),
where α and β determine the shape of a fitted line.
This sigmoidal regression function was used to capture the natural shapes of drug dose responses. Thus, the estimated β is the predicted log 10(GI50) value, the expected log concentration achieving the cell count reduction of 50%. Similarly, log 10(GI30), and log 10(GI70) values, i.e. the concentrations required to inhibit cell growth by 30%, and 70% in comparison with untreated control, were also calculated.
Cell line drug sensitivity was classified using the GI estimates and application of a criterion dose (CR) concept. […] Using these CR concentrations, each cell line was defined as sensitive if log 10(GI50)≦CR; strongly sensitive if […], or resistant if log 10(GI70)>CR, and intermediate if log 10(GI50)>CR and log 10(GI70)<CR.
To approach the development of molecular models of chemotherapeutic sensitivity in human bladder cancer, we focused on a well-defined series of 40 urothelial cell lines for which we could measure sensitivity to relevant chemotherapeutic agents in vitro and correlate these responses with global measurements of gene expression.
(In general: Alamar Blue is a resazurin reagent that responds to reducing activity.)

Assay [2] deals with BLA-40 human bladder cancer cell lines. Put plainly: In vitro growth inhibition (GI50) in BLA-40 cells, 48 hours, as for NCI-60. Type of assay: cell-based. Conditions: for potency in BLA-40 compared with NCI-60 tissue panels: BLA-40 vs nine tissue-specific panels of NCI-60. From the text: Sensitivity of human bladder cancer cells to cisplatin, paclitaxel and NSC 637993. To test the predictive models, we performed in vitro drug response experiments, and then determined GI50 values for each bladder cell line for cisplatin, paclitaxel, and compound NSC 637993 (Supplementary Materials and Methods). Sensitivity to the agents was generated by a dose response experiments carried out on the BLA-40 cells as described for the NCI-60. The final concentrations of cisplatin used were 200, 400, 800, 1600, 3200, and 6400 ng/ml; those of Paclitaxel and NSC 637993 were 0.1, 1, 2, 5, 10, and 100 nM. In each case, the cells were plated on Day 0, exposed to drug for 48 hours) at 37° C., and then assayed. Each experiment was repeated three to five independent times, and the results were expressed as a fraction of the difference between initial cell count and untreated control. Log 10(GI50) values were then estimated from the resulting dose-response curves. Bladder cell lines were defined as sensitive or resistant as described above for the NCI-60 panel. […]
In the first application of the COXEN algorithm, for example, Cell Sets 1 and 2 were the NCI-60 and BLA-40 cell panels, respectively; the Step 1 drug activities were those assessed by DTP in the NCI-60 using a 48-hour sulforhodamine B assay; the “molecular characteristic” in Steps 2 and 4 was transcript expression level, as assessed using Affymetrix HG-U133A microarrays; the algorithm in Step 3 was “Significance Analysis of Microarrays (SAM)” or two-sample t-test; Step 5 was a novel “co-expression extrapolation” algorithm; Step 6 was another novel algorithm, “Misclassification-Penalized Posterior” (MiPP), which we recently introduced for selection of the best mathematical “models” for the prediction; and applying the prediction models obtained in Step 6, independent testing of the predictions on BLA-40 cells was performed, mimicking the way the assay for the NCI-60 by DTP.

In another assay the test system is breast cancer. Conditions: cited from earlier work.
In a further assay the test system is bladder cancer. Conditions: cited from earlier work.
The next assay relates to breast cancer patients. Conditions: 24 patients, four cycles of neoadjuvant docetaxel, original study; cited from earlier work.
In assay [3] the test system is estrogen receptor-positive breast cancer patients. Nature of the assay: TAM-60 breast cancer clinical trial, time to recurrence classification. Format: in vivo, human. Conditions: of 60 patients. How it is done: In the tamoxifen clinical trial (TAM-60), 60 postmenopausal breast cancer patients with estrogen receptor-positive tumors were treated and followed for up to 180 months. Genome-wide expression profiling was performed on the primary tumors using a customized cDNA microarray platform.

Here are results for 7 compounds from US20080118576A1, “PREDICTION OF AN AGENT'S OR AGENTS' ACTIVITY ACROSS DIFFERENT CELLS AND TISSUE TYPES” (priority 2006, published 2008).

SMILES strings stand for the structures.

With `Nc1ccn([C@@H]2O[C@H](CO)[C@@H](O)C2(F)F)c(=O)n1` [Gemcitabine], in assay [1], the “criterion dose (CR)” value was found to be 0.1 µM, the “number of resistant cell lines” value was found to be 11 and the “number of sensitive cell lines” value turned out to be 8.
In the case of `CCN(CC)CCNc1ccc2nc(C)n3c4ccc(OC)cc4c(=O)c1c23` [NSC 637993], the “proportion of BLA-40 cell types with GI50 less than 10-6M” value in assay [2] (BLA-40 panel) is listed as > 60%. The “potency in BLA-40 compared with NCI-60 tissue panels” value in assay [2] is “more effective at a lower dose (1×10^−6M) in bladder cancer”; in assay [2] (listed as NSC637993), “more potent overall in the BLA-40 bladder cancers than in any of the organ-of-origin types included in the NCI-60”.
As for `CC(=O)O[C@H]1C(=O)[C@@]2(C)[C@H]([C@H](OC(=O)c3ccccc3)[C@]3(O)C[C@H](OC(=O)[C@H](O)[C@@H](NC(=O)c4ccccc4)c4ccccc4)C(C)=C1C3(C)C)[C@]1(OC(C)=O)CO[C@@H]1C[C@@H]2O` [Paclitaxel], in assay [1], the “criterion dose (CR)” value came to 0.005 µM, the “number of resistant cell lines” value stood at 11 and the “number of sensitive cell lines” value was determined as 17.
`N.N.[Cl][Pt][Cl]` [cisplatin]: in assay [1], the “criterion dose (CR)” value came to 400 ng/mL, the “number of resistant cell lines” value was determined as 11 and the “number of sensitive cell lines” value is recorded as 16.
For the compound `O=c1[nH]cc(F)c(=O)[nH]1` [compound 19893], in the assay with breast cancer, the Clinical response rate is on record as 44.4. For the same compound, the Clinical response in the assay with bladder cancer is on record as 23.1.
Regarding `CC(=O)O[C@@]12CO[C@@H]1C[C@H](O)[C@@]1(C)C(=O)[C@H](O)C3=C(C)[C@@H](OC(=O)[C@H](O)[C@@H](NC(=O)OC(C)(C)C)c4ccccc4)C[C@@](O)([C@@H](OC(=O)c4ccccc4)[C@H]21)C3(C)C` [docetaxel], in the assay on breast cancer patients, the “number of non-responder patients” value is 13 and the “number of responder patients” value was 11.
For the compound `CC/C(=C(\c1ccccc1)c1ccc(OCCN(C)C)cc1)c1ccccc1` [tamoxifen], in assay [3], the “number of non-responders (recurrence <50 months)” value was found to be 16 and the “number of responders (long-term survival >130 months)” value worked out at 11.
